Assay [1] relates to ginsenoside glycosidases from A. niger. Briefly: Hydrolysis of ginsenosides with crude ginsenoside glycosidases from A. niger, products measured by TLC. Type of assay: biochemical, Aspergillus niger. The note with it: pH 5, 30° C., 18 hours. As for the experimental part: Aspergillus niger FFCCDL-48 g was cultured in a medium containing 1% ginseng extracts and 3% wheat bran extracts at 30° C. for 54 hours. Cells were removed by centrifugation, after which (NH4)2SO4 powder was added to 2000 ml of the cell-free supernatant with stirring to 65% saturation. The solution was stored overnight at 4° C. and precipitated proteins were collected by centrifugation, resuspended in 80 ml of distilled water and dialyzed against 0.01M acetate buffer pH 5. Insolubles were removed by centrifugation, and the solution was adjusted to 200 ml with 0.01 M acetate buffer pH 5. The crude enzyme solution may be used to hydrolyze ginsenosides or to purify the enzymes.
100 mg each of ginsenosides Rb1, Rb2, Rc and Rd and 10 mg of ginsenoside Rg3 were dissolved in separate tubes containing 10 ml of 0.01M acetate buffer pH 5. 10 ml of the crude enzyme solution obtained in 1.1 was added to each tube and allowed to react at 30° C. for 18 hours. Then 10 ml of n-butanol was added to stop the reactions. The products were measured by thin layer chromatography (TLC) (Silica gel 60-F254, Merck; chloroform:methanol:water 70:30:5).
Experiments were carried out to explore the effects of temperature, pH, metal ions and reaction time on the enzyme reaction, in order to further characterize the enzymes.
100 mg of ginsenoside Rb1 was used in a reaction under the conditions as described in 1.2 and the effect of temperature was shown in Table 2.

The test system of assay [2] is Cellobiose-producing enzyme from Clostridium. Briefly: Comparison: hydrolysis of ginsenosides with cellobiose-producing enzyme. Type of assay: biochemical, Clostridium thermocopiriae. Conditions: substrate 0.5%, pH 5.0, 30° C., 18 hours. The source says: (§1) To observe the differences between the ginsenoside glycosidases of the invention and known exo-cellulases, the ginsenoside glycosidases of the invention were compared with cellulose β-glucosidase (E.C. 3.2.1.21) in two reactions with 0.5% ginsenosides Rb1 or Rd as substrate.
An exo-cellulase from Clostridium thermocopiriae (cellobiose-producing enzyme) cleaves cellodextrin to give cellobiose, but cannot hydrolyze diglucosidic bond at C-3 of ginsenoside Rd. So it is completely different from ginsenoside glycosidase III. Therefore, the ginsenoside glycosidases of the invention are enzymes different from known cellulose β-glucosidases and cellobiose-producing enzymes.

The subject of assay [3] is ginsenoside glycosidase I. Briefly: Hydrolysis of ginsenosides with Fraction 36 (ginsenoside glycosidase I). The format is biochemical, Aspergillus niger. The note with it: pH 5.0, 30° C. As for the experimental part: 10 ml of the enzyme solution obtained in 1.1 was subjected to a DEAE-Cellulose DE-52 column (Pharamcia, 1.5×6.7 cm) to absorb the enzyme protein. The column was then eluted with a NaCl gradient (0.06, 0.12, 0.18, 0.24, 0.3, 0.4, 0.5 and 0.6M).
Fractions 36 and 54 from the DEAE-Cellulose column appeared as one dot on a SDS-polyacrylamide gel, representing the purified enzymes.
Fraction 36 which was eluted with 0.12 M NaCl from the DEAE-Cellulose column was lyophilized and appeared as a single dot with a molecular weight of 51,000 Daltons when running on a SDS-polyacrylamide gel.
as §1

[4] abbreviates: Fraction 36, substrates Rb1, Rb2, Rc, Rd 0.5%, Rg3, F2, Rh2, C—K, Rg2 0.05%.
The mark [5] stands for this setting: Table 8, ginsenoside glycosidase I, substrate 0.5%, 18 hours.

For `CC(C)=CCC[C@](C)(O[C@@H]1O[C@H](CO)[C@@H](O)[C@H](O)[C@H]1O)[C@H]1CC[C@]2(C)[C@@H]1[C@H](O)C[C@@H]1[C@@]3(C)CC[C@H](O[C@@H]4O[C@H](CO)[C@@H](O)[C@H](O)[C@H]4O[C@@H]4O[C@H](CO)[C@@H](O)[C@H](O)[C@H]4O)C(C)(C)[C@@H]3CC[C@]12C` [Rd, ginsenoside Rd], in assay [1], the “Percentage of C—K in the reaction product” value (“Percentage of C—K” for short) is 25%, the “Percentage of F2 in the reaction product” value came out at 50%, the “Percentage of Rd in the reaction product” value turned out to be 15% and the “Percentage of Rh2 in the reaction product” value stood at 5%. In addition, the “Percentage of aglycone in the reaction product” value (from here on “Percentage of aglycone”) in assay [1] was 5%. In addition, the “Percentage of Rb1 in the reaction product” value in assay [2] came out at 100%. Moreover, in assay [3] (setting [4]), the “Percentage of C—K” value is listed as 25%, the “Percentage of F2 in the reaction product” value was 50% and the “Percentage of aglycone” value is on record as 5%. Besides, in assay [3] (setting [5]), the “Percentage of C—K” value came out at 25%, the “Percentage of F2 in the reaction product” value came to 50% and the “Percentage of aglycone” value stood at 5%.

The values above are taken from patent publication US7759101B2, “Ginsenoside glycosidases hydrolyzing ginsenoside sugar moieties and uses thereof” (priority 2000, dated 2010).
